Assay results taken from patent US8765772B2, “Purine derivatives for use in the treatment of allergic, inflammatory and infectious diseases” (GlaxoSmithKline LLC, priority 2008, dated 2014).

Tested on: TNF-α
Assay: Induction of TNF-α using fresh human PBMCs
Format: cell-based
Settings: PBMC, 24 hr incubation, relative to 2 μM resiquimod control, read-out: mean pEC50 for induction of TNF-α (converted)
Procedure: Assay for the Induction of Interferon-α and TNF-α using Fresh Human Peripheral Blood Mononuclear Cells (PBMCs)
Compounds were dissolved and serially diluted in DMSO to give 100× the required concentration range using a Biomek 2000. 1 ul of test compound was transferred into 96-well tissue culture plates using a Biomek FX. Each compound was assayed in duplicate for each donor. Each plate contained a dilution series of the TLR7/8 agonist resiquimod as standard and Column 11 contained 1 μl of 200 μM resiquimod (giving a 2 μM final concentration, used to define the approximate maximal response to resiquimod).
Blood samples from two human donors were collected into sodium heparin (10 U/ml). 25 ml volumes of whole blood were overlaid onto 15 mls Histopaque in Leucosep tubes which were centrifuged at 800 g for 20 min and the band at the plasma/histopaque interface carefully removed. The collected cells were centrifuged at 2500 rpm for 10 min and the pellet resuspended in 10 ml of media (RPMI 1640 (Low endotoxin) supplemented with 10% v/v foetal calf serum (FCS, low endotoxin) 100 U/ml penicillin G, 100 μg/ml streptomycin, 10 mM L-glutamine and 1× non-essential amino acids). A 1:20 dilution of the cells was prepared using trypan blue & the cells counted using a haemocytometer. The PBMCs were diluted to give a final concentration of 2×10^6/ml and 100 ul of this cells suspension was added to wells containing 1 μl of diluted test compound.
Incubation and Assays for Interferon-α and TNF-α
The cell preparations were incubated for 24 hr (37° C., 95% air, 5% CO2) after which a sample of the supernatant was removed using the Biomek FX and assayed for both IFN-α and TNF-α using the MSD (Mesoscale Discovery) electrochemiluminescence assay platform. The IFN-α assay was carried out similarly to that described above. The TNF-α assay was carried out as per kit instructions (Cat No K111BHB). Cytokine released was expressed as a percentage of the 2 μM resiquimod control (column 11). This percentage was plotted against compound concentration and the pEC50 for the response determined by non-linear least squares curve fitting. For the IFN-α responses generally a 4 parameter logistic model was selected. For the TNF responses where a clear maximum response was obtained (i.e. a well defined plateau in the response was observed) then a 4 parameter model was generally used. If the upper asymptote of the curve wasn't well defined then the curve fitting was generally constrained to a maximal response of 100% (i.e. to the response to 2 μM resiquimod) or to the response of the highest concentration tested if this was greater than the resiquimod response. Some curves were bell shaped for one or both cytokines and the cytokine data on the down slope of the bell shaped response (i.e. concentrations above those giving the maximal response) were generally excluded from the fit, usually with the exception of the concentration immediately above the peak response. Curve fitting thus concentrated on the up slope of the dose response curve.

Row | Compound | EC50 [nM]
1 | CCCCOc1nc(N)c2[nH]c(=O)n(CCCCCCN3CCCC3)c2n1 [Example 13, 6-Amino-2-(butyloxy)-9-[6-(1-pyrrolidinyl)hexyl]-7,9-dihydro-8H-purin-8-one] | ≥ 1000
2 | CCCCOc1nc(N)c2[nH]c(=O)n(CCCCCCN3CCCCCC3)c2n1 [Example 15, 6-Amino-2-(butyloxy)-9-[6-(hexahydro-1H-azepin-1-yl)hexyl]-7,9-dihydro-8H-purin-8-one] | ≥ 1000
3 | CCC[C@H](C)Oc1nc(N)c2[nH]c(=O)n(CCCCN3CCCCC3)c2n1 [Example 20, 6-Amino-2-{[(1S)-1-methylbutyl]oxy}-9-[4-(1-piperidinyl)butyl]-7,9-dihydro-8H-purin-8-one] | ≥ 1000
4 | CCC[C@H](C)Oc1nc(N)c2[nH]c(=O)n(CCCCN3CCCCCC3)c2n1 [Example 21, 6-Amino-9-[4-(hexahydro-1H-azepin-1-yl)butyl]-2-{[(1S)-1-methylbutyl]oxy}-7,9-dihydro-8H-purin-8-one] | ≥ 1000
5 | CCC[C@H](C)Oc1nc(N)c2[nH]c(=O)n(CCCCCN3CCCCC3)c2n1 [Example 22, 6-Amino-2-{[(1S)-1-methylbutyl]oxy}-9-[5-(1-piperidinyl)pentyl]-7,9-dihydro-8H-purin-8-one] | ≥ 1000
6 | CCC[C@H](C)Oc1nc(N)c2[nH]c(=O)n(CCCCCN3CCCCCC3)c2n1 [Example 23, 6-Amino-9-[5-(hexahydro-1H-azepin-1-yl)pentyl]-2-{[(1S)-1-methylbutyl]oxy}-7,9-dihydro-8H-purin-8-one] | ≥ 1000
